Data reported in article PMC10382584, “Macrocyclization of linear molecules by deep learning to facilitate macrocyclic drug candidates discovery” (Nature Communications, 2023).
Several values for one entry are separate records, joined by “and”; a condition that tells them apart may be missing. Equal entries are not always repeated. Where two headings read alike, the source gives them in different places.

Assays:
DSS-induced colitis mice = test: In vivo efficacy study, DSS-induced colitis model; design: species or system male BALB/c mice; details: Fedratinib 10 mg/kg; for DAI score (Fig. 6b) / Body weight (Fig. 6a): individual mice
Method: Model mice were divided into four groups and eight mice were included in each group on day 8. […] Meanwhile, solvent was given intragastrically to the control group and model group. On day 15, the mice were sacrificed, and the length and weight of each colon were measured.
Body weight, the stool consistency, and the presence of blood in feces were recorded daily in the morning. […] The maximum score was 9, which was the sum of the scores. About 1-cm colon tissue, which is 0.5 cm away from the anal margin, was collected, and the ileocecal area was used for histopathological examination. After H&E staining, the tissues were scored under single-blind conditions to evaluate the levels of inflammation and tissue damage in the colons following the criteria proposed by ref. [62]. Statistical analyses were performed using SPSS v24.0.

[1] = Chemical stability in DMSO stock solution (HPLC purity); type: physicochemical; details: mean±SD
From the text: compounds were formulated in the solubilizing vehicle (5% DMSO/30% PEG400/65% […]
safety to the mice in the test.
6. What was the sample dissolved in for the in vitro and in vivo experiments? Response: The solvent information for the in vitro and in vivo experiments has been added in the revised manuscript. […]
7. Was the stability of the different compounds assessed and compared to Fedratinib? This is generally a critical point in macrocyclic studies. […]
in DMSO stock solution. Test compounds were incubated at room temperature and 60 ℃, respectively, for 72 h, and their purities (%) were determined using HPLC equipped with a CORTECS C18 column (4.6*50 mm, 2.7 μm particle size) and a UV/VIS detector setting of λ=210 nm. All co mpounds were eluted with the two solvent systems ([…] as organic phase in Method I and CH3OH as organic phase in Method II) at a flow rate of 0.3 ml/min. Each experiment repeated for three times and the results are represented as mean±SD.
Ta b e l R 1 . Comparison of chemical stability of different compounds at room temperature and 60 ℃, respectively.

In vivo PK study in mice = details: male, BALB/c, mouse, plasma, 5 mg/kg
Method: The mice were separately administered to a group of three mice per time point for intravenous (5 mg/kg) or oral administration (5 mg/kg). […] Then the samples were separated by centrifugation and analyzed by LC-MS/MS (XEVO TQ-S) to determine the plasma drug concentrations. The PK parameters were calculated using the noncompartment model with Phoenix WinNonLin v8.0. The animal experimental procedures were approved by the Medicine Research Ethics Committee of Hangzhou Leading Pharmatech Co., Ltd.

SET-2 cells = test: Cell proliferation assay (CCK-8), SET-2 cells; type: cell-based, human; details: for Inhibition (%): single wells of replicate 1 and replicate 2
Method: (§1) The human erythroid leukemia (HEL 92.1.7) cells were purchased from the American Type Culture Collection (ATCC, TIB-180), and the human megakaryoblastic (SET2) cells were obtained from German Collection of Microorganisms and Cell Cultures (DSMZ, ACC 608). The anti-proliferative activities of compounds were evaluated using WST-8 cell counting kit-8 (Elabscience). HEL and SET-2 cells were seeded at 5000 cells/well in 70 μL RPMI-1640 medium (Hyclon) with 10% FBS (Gibco) to the 96-well plate and incubated overnight at 37 °C with 5% CO2. The compounds were serially diluted in RPMI-1640 medium, and cells were treated separately with 30 μL various concentrations of compounds for 72 h. The final DMSO concentration in the culture wells was 0.1%, which had no effect on the cell viability. Finally, 10 μL of CCK-8 solution was added into the wells. 4 h later, the absorbance values at 450 nm were recorded. IC50 values were determined using GraphPad Prism v8.3.0, and three parallel experiments were performed.

HEL cells = test: Cell proliferation assay (CCK-8), HEL cells; type: cell-based, human
Method: as §1

## Cc1cnc(Nc2ccc(OCCN3CCCC3)cc2)nc1Nc1cccc(S(=O)(=O)NC(C)(C)C)c1 [Fedratinib]
DSS-induced colitis mice; 3.5% DSS colitis mice, compound 3 5 mg/kg
  histological scores (H&E, Ameho criteria): lower
DSS-induced colitis mice; 3.5% DSS colitis mice, compound 3 5 mg/kg, intragastric, day 8 to day 14
  body weight change: alleviate the decrease of body weight
DSS-induced colitis mice; day 0
  DAI score (Fig. 6b): 0
DSS-induced colitis mice; day 0, in g (unit assumed)
  Body weight (Fig. 6a): 22.2 and 22.7 and 23.9 and 22.6 and 19.9 and 23.6 and 20.6 and 23.1
DSS-induced colitis mice; day 1
  DAI score (Fig. 6b): 1 (4×) and 0 (4×)
DSS-induced colitis mice; day 1, in g (unit assumed)
  Body weight (Fig. 6a): 21.3 and 24.2 and 23.6 and 23.8 and 21.7 and 23.2 and 20.9 and 22
DSS-induced colitis mice; day 2
  DAI score (Fig. 6b): 0 (3×) and 1 (5×)
DSS-induced colitis mice; day 2, in g (unit assumed)
  Body weight (Fig. 6a): 22.6 and 23.8
DSS-induced colitis mice; day 3
  DAI score (Fig. 6b): 0 (5×) and 1 (3×)
DSS-induced colitis mice; day 4
  Body weight (Fig. 6a): 21.8 and 22.7 and 23.6 (2×) and 22.3 and 21.7 and 19.8 and 23.2
  DAI score (Fig. 6b): 1 (5×) and 3 (2×) and 0
DSS-induced colitis mice; day 5
  DAI score (Fig. 6b): 0 (3×) and 3 (2×) and 1 and 4 and 2
DSS-induced colitis mice; day 5, in g (unit assumed)
  Body weight (Fig. 6a): 22 and 21.8 and 23.1 and 21 and 21.9 and 23.6 and 18.9 and 22.7
DSS-induced colitis mice; day 6
  DAI score (Fig. 6b): 1 (4×) and 6 and 7 and 2 and 5
DSS-induced colitis mice; day 6, in g (unit assumed)
  Body weight (Fig. 6a): 22.1 and 20.1 and 22.6 and 19.3 and 21.5 and 23.6 and 17.1 and 20.5
DSS-induced colitis mice; day 7
  Body weight (Fig. 6a): 21.8 (2×) and 19 and 22.5 and 18.2 and 23.9 and 16 and 18.3
  DAI score (Fig. 6b): 2 (2×) and 7 (3×) and 0 and 3 and 6
DSS-induced colitis mice; day 8
  DAI score (Fig. 6b): 0 (5×) and 3 (2×) and 6
DSS-induced colitis mice; day 8, in g (unit assumed)
  Body weight (Fig. 6a): 22.3 and 18.8 and 23.8 and 18.6 and 21.7 and 24 and 15.6 and 17.2
DSS-induced colitis mice; day 9
  DAI score (Fig. 6b): 0 (5×) and 3 (2×) and 1
DSS-induced colitis mice; day 9, in g (unit assumed)
  Body weight (Fig. 6a): 22.3 and 19.4 and 23.7 and 19.1 and 19.3 and 24.2 and 15.3
DSS-induced colitis mice; day 10
  DAI score (Fig. 6b): 2 (2×) and 1 (3×) and 0 (2×)
DSS-induced colitis mice; day 10, in g (unit assumed)
  Body weight (Fig. 6a): 21.6 and 18.4 and 23.8 and 19.7 and 19 and 23.6 and 15.4
DSS-induced colitis mice; day 11
  DAI score (Fig. 6b): 0 (5×) and 1 and 2
DSS-induced colitis mice; day 11, in g (unit assumed)
  Body weight (Fig. 6a): 21.9 and 18.6 and 23.5 and 20.2 and 18.7 and 23.6 and 16
DSS-induced colitis mice; day 12
  DAI score (Fig. 6b): 0 (5×) and 1
DSS-induced colitis mice; day 12, in g (unit assumed)
  Body weight (Fig. 6a): 22.2 and 19.1 and 24.1 and 19.9 and 19.4 and 23.8 and 16
DSS-induced colitis mice; day 13, in g (unit assumed)
  Body weight (Fig. 6a): 21.9 and 19.8 and 24.2 and 20.4 and 20.1 and 24 and 16.1
DSS-induced colitis mice; day 14, in g (unit assumed)
  Body weight (Fig. 6a): 22.6 and 20.3 and 24.5 and 20.4 and 20.8 and 24.1 and 16.5
DSS-induced colitis mice; individual colon tissues (n = 5)
  HE staining score (Fig. 6d): 1 and 3 and 0
DSS-induced colitis mice; compound 3 5 mg/kg
  symptoms in DSS-induced murine colitis: ameliorate the symptoms
[1]; 60 ℃, 0 h
  purity after incubation in DMSO stock solution: 98.91±0.10%
[1]; 60 ℃, 2 h
  purity after incubation in DMSO stock solution: 98.91±0.10%
[1]; 60 ℃, 24 h
  purity after incubation in DMSO stock solution: 98.89±0.17%
[1]; 60 ℃, 48 h
  purity after incubation in DMSO stock solution: 100.00±0.00%
[1]; 60 ℃, 72 h
  purity after incubation in DMSO stock solution: 98.96±0.15%
[1]; Room Temperature, 0 h
  purity after incubation in DMSO stock solution: 99.36±0.06%
[1]; Room Temperature, 2 h
  purity after incubation in DMSO stock solution: 99.11±0.14%
[1]; Room Temperature, 24 h
  purity after incubation in DMSO stock solution: 99.99±0.00%
[1]; Room Temperature, 48 h
  purity after incubation in DMSO stock solution: 99.08±0.02%
[1]; Room Temperature, 72 h
  purity after incubation in DMSO stock solution: 99.57±0.06%
In vivo PK study in mice; iv;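 further: mice dosed intravenously or orally, three animals per time point, plasma drug levels quantified by LC-MS/MS, PK parameters derived by noncompartmental analysis in Phoenix WinNonLin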
  AUC(0-inf): 227 ng·h/mL
  Cmax: 275 ng/mL
  Tmax: 4.98 min
  half-life: 18 min
In vivo PK study in mice; oral;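 further: mice dosed intravenously or orally, three animals per time point, plasma drug levels quantified by LC-MS/MS, PK parameters derived by noncompartmental analysis in Phoenix WinNonLin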
  bioavailability: 11.7%
In vivo PK study in mice; po;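 further: mice dosed intravenously or orally, three animals per time point, plasma drug levels quantified by LC-MS/MS, PK parameters derived by noncompartmental analysis in Phoenix WinNonLin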
  AUC(0-inf): 50.2 ng·h/mL
  Cmax: 6.81 ng/mL
  Tmax: 60 min
  half-life: 282 min
SET-2 cells; Homo sapiens, SET-2, 72 h, SET-2 cells, 72 h, mean ± SD, read-out: Cellular Antiproliferative Activity (IC50) SET-2
  IC50: 1.12 ± 0.08 µM
SET-2 cells; Homo sapiens, SET-2, SET-2 cell lines, mean of two replicates, read-out: IC50/μM mean
  IC50: 1.12 µM
SET-2 cells; Homo sapiens, SET-2, SET-2 cell lines, mean ± sd of two replicates, read-out: IC50/μM mean ± sd
  IC50: 1.12 ± 0.08 µM
SET-2 cells; Homo sapiens, SET-2, SET-2 cell lines, value of each single replicate, read-out: IC50/μM
  IC50: 1.07 µM
SET-2 cells; SET-2 cell lines, C 0.0977 μM
  Inhibition (%): 12.0389% and 5.1759% and -0.6577% and 17.763% and 22.009% and 18.591%
SET-2 cells; SET-2 cell lines, C 0.1953 μM
  Inhibition (%): 22.4478% and 11.8101% and 6.6629% and 13.309% and 23.874% and 25.324%
SET-2 cells; SET-2 cell lines, C 0.3906 μM
  Inhibition (%): 33.6574% and 13.6403% and 14.6697% and 30.399% and 33.402% and 33.506%
SET-2 cells; SET-2 cell lines, C 0.7813 μM
  Inhibition (%): 33.8862% and 39.7198% and 32.9711% and 35.163% and 37.960% and 48.110%
SET-2 cells; SET-2 cell lines, C 1.5625 μM
  Inhibition (%): 69.3452% and 65.5705% and 67.2862% and 30.399% and 43.553% and 55.671%
SET-2 cells; SET-2 cell lines, C 3.1250 μM
  Inhibition (%): 88.2185% and 85.2445% and 86.3883% and 75.039% and 80.010% and 81.357%
SET-2 cells; SET-2 cell lines, C 6.2500 μM
  Inhibition (%): 86.3883% and 85.8164% and 88.9048% and 71.725% and 72.139% and 76.385%
SET-2 cells; SET-2 cell lines, C 12.5000 μM
  Inhibition (%): 97.7123% and 97.3692% (2×) and 89.643% (2×) and 91.093%
SET-2 cells; SET-2 cell lines, value of each single replicate, read-out: IC50/μM
  IC50: 1.16 µM
HEL cells; HEL cell lines, 0.0977 μM, single wells, replicates 1 and 2
  Inhibition (%): 3.834% and 2.092% and -5.316% and -2.068% and -2.146% and 0.251%
HEL cells; HEL cell lines, 0.1953 μM, single wells, replicates 1 and 2
  Inhibition (%): 5.577% and 4.096% and -7.320% and -6.244% and 7.056% and 1.643%
HEL cells; HEL cell lines, 0.3906 μM, single wells, replicates 1 and 2
  Inhibition (%): 16.296% and 7.233% and 2.004% and -5.316% and 4.195% and -1.991%
HEL cells; HEL cell lines, 0.7813 μM, single wells, replicates 1 and 2
  Inhibition (%): 26.492% and 16.296% and 14.205% and 10.690% and 13.319% and 1.875%
HEL cells; HEL cell lines, 1.5625 μM, single wells, replicates 1 and 2
  Inhibition (%): 66.754% and 58.911% and 59.608% and 37.908% and 40.692% and 44.790%
HEL cells; HEL cell lines, 3.1250 μM, single wells, replicates 1 and 2, 3.125 µM
  Inhibition (%): 88.628% and 87.669% and 91.881% and 90.412% and 89.871%
HEL cells; HEL cell lines, 6.2500 μM, single wells, replicates 1 and 2, 6.25 µM
  Inhibition (%): 90.893% and 89.499% and 94.355% and 93.737% and 94.510%
HEL cells; HEL cell lines, 12.5000 μM, single wells, replicates 1 and 2, 12.5 µM
  Inhibition (%): 91.590% and 91.503% and 95.902% (2×) and 96.056%
HEL cells; HEL cell lines, single-replicate fits, read-out: IC50/μM (individual replicates), cellular antiproliferative activity
  IC50: 1.38 µM
HEL cells; Homo sapiens, HEL, 72 h, HEL cells, 72 h, mean ± SD, read-out: Cellular Antiproliferative Activity (IC50) HEL
  IC50: 1.34 ± 0.06 µM
HEL cells; Homo sapiens, HEL, HEL cell lines, 3.1250 μM, single wells, replicates 1 and 2
  inhibition at 3.125 µM: 90.5%
HEL cells; Homo sapiens, HEL, HEL cell lines, 6.2500 μM, single wells, replicates 1 and 2
  inhibition at 6.25 µM: 92.1%
HEL cells; Homo sapiens, HEL, HEL cell lines, 12.5000 μM, single wells, replicates 1 and 2
  inhibition at 12.5 µM: 93.2%
HEL cells; Homo sapiens, HEL, HEL cell lines, […], single wells, replicates 1 and 2
  inhibition at 25 µM: 94.5%
HEL cells; Homo sapiens, HEL, HEL cell lines, mean of 2 replicates, read-out: IC50/μM mean, cellular antiproliferative activity
  IC50: 1.34 µM
HEL cells; Homo sapiens, HEL, HEL cell lines, mean ± sd of 2 replicates, read-out: IC50/μM mean ± sd, cellular antiproliferative activity
  IC50: 1.34 ± 0.06 µM
HEL cells; Homo sapiens, HEL, HEL cell lines, single-replicate fits, read-out: IC50/μM (individual replicates), cellular antiproliferative activity
  IC50: 1.29 µM
